The NIST ThermoML archive (doi:10.1021/je800633a)
Numbers after ± are expanded uncertainties.

Experiments:
[1] = 81.5 kPa, Liquid; for viscosity: Capillary tube (Ostwald / Ubbelohde) method
[2] = refractive index (Na D-line) (dimensionless); settings: 298.15 K; 101.33 kPa; Liquid; Standard Abbe refractometry
[3] = xn = mol fraction of the nth substance listed; settings: 81.5 kPa, Liquid; for viscosity: Capillary tube (Ostwald / Ubbelohde) method
[4] = refractive index (Na D-line) (dimensionless); xn = mol fraction of the nth substance listed; settings: 303.15 K, 81.5 kPa, Liquid

CC(O)CO (stereo not drawn) [1,2-propanediol]
[1]
Settings	mass density [kg/m3]	viscosity [mPa·s]
298.15 K	1032.61 ± 0.24	–
303.15 K	1028.9 ± 0.23	33.88 ± 0.58
308.15 K	1025.16 ± 0.23	–

Settings	refractive index
[2]	1.4323 ± 0.0007

CC(O)CO (stereo not drawn) [1,2-propanediol] + CCO
[3]
Settings	mass density, 298.15 K [kg/m3]	mass density, 303.15 K [kg/m3]	mass density, 308.15 K [kg/m3]	viscosity, 303.15 K [mPa·s]
x2 = 0.0492	1023.64 ± 0.22	1019.91 ± 0.21	1016.16 ± 0.21	–
x2 = 0.0738	–	–	–	25.01 ± 0.37
x2 = 0.122	1009.9 ± 0.19	1006.14 ± 0.19	1002.31 ± 0.18	–
x2 = 0.1285	–	–	–	20.47 ± 0.28
x2 = 0.2072	993.05 ± 0.18	989.22 ± 0.19	985.36 ± 0.19	–
x2 = 0.2099	–	–	–	15.2 ± 0.18
x2 = 0.2706	979.89 ± 0.2	976.03 ± 0.2	972.12 ± 0.21	–
x2 = 0.2725	–	–	–	12.14 ± 0.13
x2 = 0.3633	959.86 ± 0.22	955.92 ± 0.22	951.97 ± 0.23	–
x2 = 0.3701	–	–	–	8.55 ± 0.08
x2 = 0.4389	–	–	–	6.68 ± 0.06
x2 = 0.4478	940.7 ± 0.24	936.73 ± 0.25	932.7 ± 0.25	–
x2 = 0.5193	–	–	–	5.03 ± 0.04
x2 = 0.5261	921.85 ± 0.27	917.81 ± 0.27	913.76 ± 0.28	–
x2 = 0.5871	–	–	–	3.98 ± 0.03
x2 = 0.6103	900.63 ± 0.29	896.55 ± 0.3	892.41 ± 0.31	–
x2 = 0.677	882.99 ± 0.32	878.84 ± 0.32	874.69 ± 0.33	–
x2 = 0.678	–	–	–	2.9 ± 0.02
x2 = 0.7554	–	–	–	2.23 ± 0.02
x2 = 0.7613	859.54 ± 0.35	855.37 ± 0.35	851.13 ± 0.36	–
x2 = 0.8185	–	–	–	1.8 ± 0.01
x2 = 0.8332	838.49 ± 0.38	834.25 ± 0.38	829.99 ± 0.39	–
x2 = 0.9171	–	–	–	1.29 ± 0.01
x2 = 0.9232	810.57 ± 0.42	806.3 ± 0.42	801.98 ± 0.43	–

[4]
Settings	refractive index
x2 = 0.0738	1.426 ± 0.0008
x2 = 0.1285	1.4233 ± 0.0008
x2 = 0.2099	1.4187 ± 0.0008
x2 = 0.2725	1.4153 ± 0.0008
x2 = 0.3701	1.4093 ± 0.0008
x2 = 0.4389	1.4052 ± 0.0008
x2 = 0.5193	1.3998 ± 0.0008
x2 = 0.5871	1.3946 ± 0.0008
x2 = 0.678	1.3876 ± 0.0008
x2 = 0.7554	1.3817 ± 0.0008
x2 = 0.8185	1.3765 ± 0.0008
x2 = 0.9171	1.3672 ± 0.0008

CC(O)CO (stereo not drawn) [1,2-propanediol] + CO
[3]
Settings	mass density, 298.15 K [kg/m3]	mass density, 303.15 K [kg/m3]	mass density, 308.15 K [kg/m3]	viscosity, 303.15 K [mPa·s]
x2 = 0	1032.61 ± 0.24	1028.9 ± 0.23	1025.16 ± 0.23	–
x2 = 0.0533	1026.26 ± 0.22	1022.52 ± 0.22	1018.75 ± 0.21	–
x2 = 0.0688	–	–	–	25.51 ± 0.38
x2 = 0.1319	1016.21 ± 0.2	1012.45 ± 0.2	1008.64 ± 0.19	–
x2 = 0.1545	–	–	–	18.49 ± 0.24
x2 = 0.2246	1003.13 ± 0.18	999.31 ± 0.17	995.47 ± 0.18	–
x2 = 0.2606	–	–	–	12.31 ± 0.14
x2 = 0.282	994.24 ± 0.17	990.39 ± 0.18	986.48 ± 0.19	–
x2 = 0.3086	–	–	–	10.21 ± 0.11
x2 = 0.3666	–	–	–	8.11 ± 0.08
x2 = 0.3841	976.76 ± 0.19	972.84 ± 0.2	968.91 ± 0.21	–
x2 = 0.4494	–	–	–	5.81 ± 0.05
x2 = 0.4496	964.21 ± 0.21	960.26 ± 0.21	956.25 ± 0.22	–
x2 = 0.51	–	–	–	4.54 ± 0.04
x2 = 0.53	947.16 ± 0.23	943.12 ± 0.24	939.07 ± 0.24	–
x2 = 0.6083	928.51 ± 0.25	924.41 ± 0.26	920.25 ± 0.27	–
x2 = 0.6098	–	–	–	2.99 ± 0.02
x2 = 0.6811	–	–	–	2.21 ± 0.02
x2 = 0.7006	903.39 ± 0.29	899.17 ± 0.29	894.96 ± 0.3	–
x2 = 0.7601	884.96 ± 0.31	880.67 ± 0.32	876.35 ± 0.33	–
x2 = 0.7687	–	–	–	1.51 ± 0.01
x2 = 0.8363	–	–	–	1.11 ± 0.01
x2 = 0.8454	855.03 ± 0.35	850.61 ± 0.36	846.16 ± 0.37	–
x2 = 0.9133	827.35 ± 0.39	823.02 ± 0.4	818.45 ± 0.41	–
x2 = 0.9225	–	–	–	0.75 ± 0.01

[4]
Settings	refractive index
x2 = 0.0688	1.4262 ± 0.0008
x2 = 0.1545	1.422 ± 0.0008
x2 = 0.2606	1.4155 ± 0.0008
x2 = 0.3086	1.4129 ± 0.0008
x2 = 0.3666	1.4096 ± 0.0008
x2 = 0.4494	1.4029 ± 0.0008
x2 = 0.51	1.3983 ± 0.0008
x2 = 0.6098	1.3883 ± 0.0008
x2 = 0.6811	1.3783 ± 0.0008
x2 = 0.7687	1.3665 ± 0.0008
x2 = 0.8363	1.3571 ± 0.0008
x2 = 0.9225	1.3404 ± 0.0008

CCO [ethanol]
[1]
Settings	mass density [kg/m3]	viscosity [mPa·s]
298.15 K	785.18 ± 0.45	–
303.15 K	780.87 ± 0.46	0.994 ± 0.009
308.15 K	776.52 ± 0.47	–

Settings	refractive index
[2]	1.3595 ± 0.0007

CCO [ethanol] + CC(O)CO
[3], x1 = 1
Settings	mass density [kg/m3]
298.15 K	785.18 ± 0.45
303.15 K	780.87 ± 0.46
308.15 K	776.52 ± 0.47

CO [methanol]
[1]
Settings	mass density [kg/m3]	viscosity [mPa·s]
298.15 K	786.57 ± 0.45	–
303.15 K	781.85 ± 0.46	0.525 ± 0.007
308.15 K	777.1 ± 0.47	–

Settings	refractive index
[2]	1.327 ± 0.0007

CO [methanol] + CC(O)CO
[3], x1 = 1
Settings	mass density [kg/m3]
298.15 K	786.57 ± 0.45
303.15 K	781.85 ± 0.46
308.15 K	777.1 ± 0.47

CO [methanol] + CCO
[3], 303.15 K
Settings	viscosity [mPa·s]
x1 = 0.0417	0.968 ± 0.009
x1 = 0.1476	0.906 ± 0.008
x1 = 0.2214	0.865 ± 0.008
x1 = 0.2952	0.828 ± 0.008
x1 = 0.3644	0.793 ± 0.008
x1 = 0.4488	0.753 ± 0.008
x1 = 0.529	0.717 ± 0.008
x1 = 0.5995	0.685 ± 0.007
x1 = 0.6859	0.648 ± 0.007
x1 = 0.7442	0.624 ± 0.007
x1 = 0.832	0.588 ± 0.007
x1 = 0.9166	0.556 ± 0.007

[4]
Settings	refractive index
x1 = 0.0417	1.3567 ± 0.0008
x1 = 0.1476	1.3541 ± 0.0008
x1 = 0.2214	1.3522 ± 0.0008
x1 = 0.2952	1.3502 ± 0.0008
x1 = 0.3644	1.3485 ± 0.0008
x1 = 0.4488	1.3462 ± 0.0008
x1 = 0.529	1.3437 ± 0.0008
x1 = 0.5995	1.3415 ± 0.0008
x1 = 0.6859	1.3385 ± 0.0008
x1 = 0.7442	1.3363 ± 0.0008
x1 = 0.832	1.3328 ± 0.0008
x1 = 0.9166	1.3286 ± 0.0008
